The values below come from patent US10894798B2, “Substituted dihydropyrrolopyrazole derivative” (UBE INDUSTRIES, LTD., priority 2015, dated 2021).

The test system of assay [1] is mouse imiquimod-induced psoriasis model. Description: Ear thickening suppression test using mouse imiquimod-induced psoriasis model. The format is in vivo. The settings on record: topical, application of a 0.01% solution in methanol, female BALB/c mice, read-out: rate of inhibition of increase in ear thickness. The protocol:
An imiquimod-induced psoriasis model test was carried out by modifying the method of Leslie van der Fits et al. (J. Immunol. 182, 5836 (2009)).
Female BALB/c mice (supplied by Charles River Laboratories Japan, Inc.) were used as laboratory animals. On the start day of the test, the thicknesses of the right auricles of the mice were measured with a thickness gauge (manufactured by TECLOCK Corp.). A test compound or a solvent was applied or orally administered thereto, and after a certain time, a certain amount of Beselna Cream 5% (containing 5% imiquimod, manufactured by Mochida Pharmaceutical Co., Ltd.) was applied to the insides of the right auricles. The test compound or solvent application or oral administration and the imiquimod application were carried out for a certain period, and the thicknesses of the right auricles were measured again on the final day. The thicknesses of the right auricles were compared between the solvent-administered group and the test compound group, and the rate of inhibition was calculated.

Assay [2] has as its system breast cancer cell line BT-549. Description: Various human cancer cell growth inhibition test: BT-549. Format: cell-based. The settings on record: ATPlite, read-out: GI50 value (concentration necessary for inhibiting 50% of cell growth). From the text: (§1) A breast cancer cell line BT-549 (obtained from American Type Culture Collection (ATCC)), a uterus cancer cell line C-33A (obtained from ATCC), an ovary cancer cell line PA-1 (obtained from ATCC), a large-cell lung cancer cell line NCI-H460 (obtained from ATCC), a small-cell lung cancer cell line NCI-H82 (obtained from ATCC), a kidney cancer cell line ACHN (obtained from ATCC), a pancreatic cancer cell line BxPC-3 (obtained from ATCC), a malignant melanoma cell line A375 (obtained from ATCC), a throat cancer cell line FaDu (obtained from ATCC), a medulloblastoma cell line Daoy (obtained from ATCC), a cutaneous epithelioid sarcoma cell line VA-ES-BJ (obtained from ATCC), a rhabdomyosarcoma cell line A-204 (obtained from ATCC), a prostate cancer cell line DU145 (obtained from ATCC), a bladder cancer cell line T24 (obtained from ATCC), a lymphoma cell line SR (obtained from ATCC), a neuroblastoma cell line SH-SY5Y (obtained from DS Pharma Biomedical Co., Ltd.), a liver cancer cell line HepG2 (obtained from DS Pharma Biomedical Co., Ltd.), a stomach cancer cell line HGC-27 (obtained from DS Pharma Biomedical Co., Ltd.), and a multiple myeloma cell line NCI-H929 (obtained from DS Pharma Biomedical Co., Ltd.) were used as human cancer cell lines.
(§2) Each cell line was cultured in a cell culture medium recommended by ATCC or DS Pharma Biomedical Co., Ltd. and inoculated at 0.3 to 5.0×10^3 cells/well to a 96-well plate. The cells were cultured overnight in a carbon dioxide incubator of 37° C. containing 5% carbon dioxide. The medium was replaced with a fresh medium on the next day, then replaced with a mixed solution of a DMSO solution of a test compound with varying concentrations and a culture medium (final DMSO concentration: 0.1%), and left standing in a carbon dioxide incubator (day 0). IV-361, IV-379, IV-3, IV-215, IV-299, IV-669, IV-1049, and palbociclib (for comparison) were used as test compounds. For a control group, DMSO was added instead of the DMSO solution of the test compound to a cell culture medium (final DMSO concentration: 0.1%).
(§3) After culture for a predetermined period, the ATP activity of BT-549, C-33A, PA-1, NCI-H460, NCI-H82, ACHN, BxPC-3, A375, FaDu, Daoy, VA-ES-BJ, A-204, DU145, T24, and SR was measured by using ATPlite (manufactured by PerkinElmer, Inc.). The ATP activity of SH-SY5Y, HepG2, HGC-27, and NCI-H929 was measured by using CellTiter-Glo (manufactured by Promega Corp.).
(§4) The rate of inhibition of cell growth (%) was calculated according to the expression given below. Specifically, in the case where the difference between the ATP activity before culture (day 0) and the ATP activity after culture in the test compound-administered group is the same as the difference between the ATP activity before culture (day 0) and the ATP activity after culture in the control group, the rate of inhibition of cell growth is 0%. Rate of inhibition of cell growth=(1−((ATP activity of the test compound-administered group after culture)−(ATP activity of the test compound-administered group on day 0))/((ATP activity of the control group after culture)−(ATP activity of the control group on day 0)))×100
(§5) The concentration of the test compound necessary for inhibiting 50% of cell growth (GI50 value) was calculated by using EXSUS (version 8.1.0, manufactured by CAC Exicare Corp.).

The test system of assay [3] is uterus cancer cell line C-33A. As to the kind of experiment: Various human cancer cell growth inhibition test: C-33A. The format is cell-based. Conditions: ATPlite, read-out: GI50 value (concentration necessary for inhibiting 50% of cell growth).
Excerpt: as §1, §2, §3, §4, §5
Background: ATP-based viability assays read luminescence as a measure of living cells.

The test system of assay [4] is ovary cancer cell line PA-1. Description: Various human cancer cell growth inhibition test: PA-1. The format is cell-based. Conditions: ATPlite, read-out: GI50 value (concentration necessary for inhibiting 50% of cell growth).
Excerpt: as §1, §2, §3, §4, §5

For assay [5], the system named is large-cell lung cancer cell line NCI-H460. Description: Various human cancer cell growth inhibition test: NCI-H460. The settings on record: ATPlite, read-out: GI50 value (concentration necessary for inhibiting 50% of cell growth). Format: cell-based.
Excerpt: as §1, §2, §3, §4, §5

Assay [6] relates to small-cell lung cancer cell line NCI-H82. As to the kind of experiment: Various human cancer cell growth inhibition test: NCI-H82. The format is cell-based. Conditions: ATPlite, read-out: GI50 value (concentration necessary for inhibiting 50% of cell growth).
Excerpt: as §1, §2, §3, §4, §5

The subject of assay [7] is kidney cancer cell line ACHN. Description: Various human cancer cell growth inhibition test: ACHN. The settings on record: ATPlite, read-out: GI50 value (concentration necessary for inhibiting 50% of cell growth). Format: cell-based.
Excerpt: as §1, §2, §3, §4, §5

Assay [8] deals with pancreatic cancer cell line BxPC-3. Description: Various human cancer cell growth inhibition test: BxPC-3. Conditions: ATPlite, read-out: GI50 value (concentration necessary for inhibiting 50% of cell growth). Format: cell-based.
Excerpt: as §1, §2, §3, §4, §5

Assay [9] deals with malignant melanoma cell line A375. Description: Various human cancer cell growth inhibition test: A375. Format: cell-based. The settings on record: A-375, ATPlite, read-out: GI50 value (concentration necessary for inhibiting 50% of cell growth).
Excerpt: as §1, §2, §3, §4, §5

The subject of assay [10] is throat cancer cell line FaDu. Description: Various human cancer cell growth inhibition test: FaDu. The format is cell-based. Conditions: ATPlite, read-out: GI50 value (concentration necessary for inhibiting 50% of cell growth).
Excerpt: as §1, §2, §3, §4, §5

For assay [11], the system named is medulloblastoma cell line Daoy. Description: Various human cancer cell growth inhibition test: Daoy. Format: cell-based. The settings on record: ATPlite, read-out: GI50 value (concentration necessary for inhibiting 50% of cell growth).
Excerpt: as §1, §2, §3, §4, §5

The test system of assay [12] is rhabdomyosarcoma cell line A-204. As to the kind of experiment: Various human cancer cell growth inhibition test: A-204. The settings on record: A204, ATPlite, read-out: GI50 value (concentration necessary for inhibiting 50% of cell growth). Format: cell-based.
Excerpt: as §1, §2, §3, §4, §5

For assay [13], the system named is stomach cancer cell line HGC-27. As to the kind of experiment: Various human cancer cell growth inhibition test: HGC-27. Format: cell-based. The settings on record: CellTiter-Glo, read-out: GI50 value (concentration necessary for inhibiting 50% of cell growth).
Excerpt: as §1, §2, §3, §4, §5

In assay [14] the test system is multiple myeloma cell line NCI-H929. Description: Various human cancer cell growth inhibition test: NCI-H929. The settings on record: CellTiter-Glo, read-out: GI50 value (concentration necessary for inhibiting 50% of cell growth). The format is cell-based.
Excerpt: as §1, §2, §3, §4, §5

Bounds are passed on as bounds.

Consider `CC1(C)c2[nH]nc(NC(=O)C3([Si](C)(C)C)CCC3)c2CN1C(=O)Nc1c(Cl)cccc1Cl` [IV-199, N-(2,6-Dichlorophenyl)-6,6-dimethyl-3-[1-(trimethylsilyl)cyclobutanecarboxamido]-4,6-dihydropyrrolo[3,4-c]pyrazole-5(1H)-carboxamide], for which the inhibition in vivo at 0.01 % in assay [1] is no less than 50%.
Still for that read-out and setting: the figure for `CC1(C)c2[nH]nc(NC(=O)C3([Si](C)(C)C)CCC3)c2CN1C(=O)Nc1c(F)cccc1OC(F)F` [IV-169, N-[2-(Difluoromethoxy)-6-fluorophenyl]-6,6-dimethyl-3-[1-(trimethylsilyl)cyclobutanecarboxamido]-4,6-dihydropyrrolo[3,4-c]pyrazole-5(1H)-carboxamide] is no less than 50%.
As to `CC1(C)c2[nH]nc(NC(=O)C3([Si](C)(C)C)CCC3)c2CN1C(=O)Nc1c(F)ccc2ccoc12` [IV-1049, N-(6-Fluorobenzofuran-7-yl)-6,6-dimethyl-3-[1-(trimethylsilyl)cyclobutanecarboxamido]-4,6-dihydropyrrolo[3,4-c]pyrazole-5 (1H)-carboxamide], the GI50 in assay [2], in assay [3], in assay [4], in assay [5], in [6] and in assay [7] was less than 0.3 µM throughout. Moreover, the GI50 in [8], in assay [9], in assay [10], in assay [11], in assay [12] and in assay [13] was less than 0.3 µM in each case. In addition, the GI50 in assay [14] is less than 0.3 µM.
For `Cc1cccc(F)c1NC(=O)N1Cc2c(NC(=O)C3([Si](C)(C)C)CCC3)n[nH]c2C1(C)C` [IV-129, N-(2-Fluoro-6-methylphenyl)-6,6-dimethyl-3-[1-(trimethylsilyl)cyclobutanecarboxamido]-4,6-dihydropyrrolo[3,4-c]pyrazole-5 (1H)-carboxamide], the inhibition in vivo at 0.01 % in [1] was no less than 50%.
Regarding `Cc1ccc(F)cc1NC(=O)N1Cc2c(NC(=O)C3([Si](C)(C)C)CCC3)n[nH]c2C1(C)C` [IV-361, N-(5-Fluoro-2-methylphenyl)-6,6-dimethyl-3-[1-(trimethylsilyl)cyclobutanecarboxamido]-4,6-dihydropyrrolo[3,4-c]pyrazole-5 (1H)-carboxamide], the GI50 in assay [2], in assay [3], in assay [4], in [5], in assay [6] and in [7] was less than 0.3 µM in each case. Also, the GI50 in assay [8], in [9], in assay [10], in assay [11], in assay [12] and in assay [13] was less than 0.3 µM each time. Also, the GI50 in assay [14] is less than 0.3 µM.
Consider `CCc1cccc(C)c1NC(=O)N1Cc2c(NC(=O)C3([Si](C)(C)C)CCC3)n[nH]c2C1(C)C` [IV-389, N-(2-Ethyl-6-methylphenyl)-6,6-dimethyl-3-[1-(trimethylsilyl)cyclobutanecarboxamido]-4,6-dihydropyrrolo[3,4-c]pyrazole-5 (1H)-carboxamide], for which the inhibition in vivo at 0.01 % in [1] was no less than 50%.
`Cc1ccc(C)c(NC(=O)N2Cc3c(NC(=O)C4([Si](C)(C)C)CCC4)n[nH]c3C2(C)C)c1` [IV-379, N-(2,5-Dimethylphenyl)-6,6-dimethyl-3-[1-(trimethylsilyl)cyclobutanecarboxamido]-4,6-dihydropyrrolo[3,4-c]pyrazole-5(1H)-carboxamide]: the GI50 in assay [2], in [3], in [4], in assay [5], in [6] and in assay [7] was less than 0.3 µM throughout. Besides, the GI50 in assay [8], in assay [9], in assay [10], in [11], in [12] and in [13] was less than 0.3 µM throughout. For the same molecule, the GI50 in assay [14] is less than 0.3 µM.
Turning to `CC1(C)c2[nH]nc(NC(=O)C3([Si](C)(C)C)CCC3)c2CN1C(=O)Nc1ccccc1F` [IV-3, N-(2-Fluorophenyl)-6,6-dimethyl-3-[1-(trimethylsilyl)cyclobutanecarboxamido]-4,6-dihydropyrrolo[3,4-c]pyrazole-5(1H)-carboxamide], the GI50 in assay [2], in assay [3], in [4], in [5], in [6] and in assay [7] was less than 0.3 µM in each case. The GI50 in assay [8], in assay [9], in assay [10], in [11], in [12] and in assay [13] was less than 0.3 µM each time. For the same molecule, the GI50 in [14] is less than 0.3 µM.
Turning to `CCc1cccc(F)c1NC(=O)N1Cc2c(NC(=O)C3([Si](C)(C)C)CCC3)n[nH]c2C1(C)C` [IV-137, N-(2-Ethyl-6-fluorophenyl)-6,6-dimethyl-3-[1-(trimethylsilyl)cyclobutanecarboxamido]-4,6-dihydropyrrolo[3,4-c]pyrazole-5(1H)-carboxamide], the inhibition in vivo at 0.01 % in [1] is no less than 50%.
On the same count and under the same terms, under `COc1cccc(Cl)c1NC(=O)N1Cc2c(NC(=O)C3([Si](C)(C)C)CCC3)n[nH]c2C1(C)C` [IV-247, N-(2-Chloro-6-methoxyphenyl)-6,6-dimethyl-3-[1-(trimethylsilyl)cyclobutanecarboxamido]-4,6-dihydropyrrolo[3,4-c]pyrazole-5(1H)-carboxamide] stands no less than 50%.
